We go through four compounds from US6579893B1, “Use of troglitazone and related compounds for the treatment of cancer” (Board of Regents, The University of Texas System, priority 1997, dated 2003).

SMILES strings stand for the structures.

In one series the test system is NWTb3 cells. In words: Cell viability of NWTb3 cells (MTT to formazan). The settings on record: NWTb3, 4 days, MTT (FIG. 11).
Series [1] concerns HGL5 cells. As to the kind of experiment: Cell viability of HGL5 cells (MTT to formazan). The settings on record: HGL5, 4 days, MTT (FIG. 9).
Experimental: Cell viability was assessed by the conversion of MTT to formazan as previously described. Data are the mean ±SEM from 2 studies done in triplicate.
A similar assay was used as described above porcine granulosa cells, using MTT instead of MTS for conversion to formazan.
The subject of a further series is P450scc. As to the kind of experiment: Northern blot of P450scc mRNA in porcine granulosa cells. Type of series: cell-based. Conditions: 5 μg ml, 24 h (FIG. 5). From the text:
FIG. 5. Scanned image of Northern blot Troglitazone effects on mRNA concentrations of P450scc.
Suppression of transcription of this enzyme would result in decreased progesterone production by granulosa cells.

In series [2] the test system is porcine granulosa cells. In words: Cell viability of porcine granulosa cells (MTS to formazan). Type of series: cell-based. Conditions: even at the highest doses, 100 μg ml (FIG. 3). The protocol:
FIG. 3. Cell viability porcine granulosa cells during treatment with Troglitazone. Porcine granulosa cells were treated with various concentrations of Troglitazone and cell viability determined using a MTS dye oxidation method. This method is based on the ability of dehydrogenase enzymes found in metabolically active cells to oxidize MTS to formazan. This compound is soluble in tissue culture medium.
Therefore, cell viability was tested in these cells using a colorimetric assay that is dependent on the oxidation of MTS to formazan (absorbance measured at 490 nm ) by dehydrogenase enzymes found in metabolically active cells (Promega, Madison WI). This assay was verified in porcine granulosa cells by showing a linear increase in absorption with increasing cell density.

The subject of series [3] is porcine granulosa cells. As to the kind of experiment: DNA content and total protein of treated porcine granulosa cells. Type of series: cell-based.
Series [4] has as its system porcine granulosa cells. As to the kind of experiment: Progesterone production by cultured porcine granulosa cells. Type of series: cell-based. The settings on record: for suppression of progesterone production, dose-response: serum-free medium, varying concentrations, 24 h (FIG. 1). An excerpt:
FlG. 1. Dose-response of progesterone production suppression in porcine granulosa cells treated with Troglitazone and related thiazolidinedione compounds. […] . […] Progesterone concentrations were corrected for DNA content in treated cells and are presented as a percentage of basal corrected progesterone production.
FIG. 2. Time course of Troglitazone suppression of progesterone production by porcine granulosa cells. […] .
FIG. 4. Effects of 25-OH cholesterol on Troglitazone suppression of porcine granulosa cell progesterone production. […] .
Initial studies investigated the dose-response of Troglitazone and related compounds on progesterone production in cultures of porcine granulosa cells. Porcine granulosa cells were isolated from 1- to 5-mm follicles of ovaries from immature swine (60-70 kg) obtained from a local slaughterhouse (Urban et al. 1994). The cells were plated in Eagle's minimum essential medium and 3% fetal calf serum (FCS) at a concentration of 20-30 million cells 60-mm dish for 12-16 h to facilitate granulosa cell attachment to the plates. Monolayer cultures were maintained at 37° C. in 5% CO2 throughout the study. After granulosa cell attachment, medium containing the FCS was discarded and serum-free medium with varying concentrations of Troglitazone, pioglitazone and BRL 49653 was added for 24 h. One ml of medium was collected for measurement of progesterone by an assay previously described that uses the chromatographic separation of steroids to enhance specificity (Urban et al. 1994). […] . The time course for the suppression of progesterone was done in the same porcine granulosa cell culture system. […] . The suppression of progesterone production in porcine granulosa cells by Troglitazone could be due to effects of the drug on the supply of cholesterol to the mitochondria. Before investigating proteins in the pathway of cholesterol transport to the mitochondria, it was first tested whether Troglitazone would inhibit progesterone production when cells were co-treated with 25-OH cholesterol. This compound diffuses directly to the P-450 cholesterol side-chain cleavage enzyme (P-450scc) in the mitochondria and acts as a substrate for progesterone production (Veldhuis and Furlanetto, 1985). […] .

For the next series, the system named is MCF-7 cells. In words: Cell viability of MCF-7 cells (MTT to formazan). The settings on record: MCF-7 (non-PPARγ expressing), 4 days, MTT (FIG. 13).
Series [5] concerns polycystic ovary syndrome. The settings on record: women with PCO, 400 mg every day, cited from earlier work.
Series [6] concerns HGL5 cells.
Text: Progesterone was corrected for protein concentration. The data represent the mean ±SEM from 2 studies done in triplicate.
In series [7] the test system is PPARγ. As to the kind of experiment: EMSA of porcine granulosa cell nuclear extract with consensus PPRE (DR-1) oligonucleotide. Type of series: cell-based. The settings on record: 15 μg nuclear extract protein, EMSA (FIG. 6). An excerpt:
The nuclear extract was mixed with radioactively-labeled consensus PPRE as described in FIG. 6.
On the technique in general: In EMSA bound probe runs differently from free probe, usually more slowly.

Another series concerns the target T1, PPARα (Homo sapiens, UniProt Q07869).
T1 sequence (Q07869 1-468): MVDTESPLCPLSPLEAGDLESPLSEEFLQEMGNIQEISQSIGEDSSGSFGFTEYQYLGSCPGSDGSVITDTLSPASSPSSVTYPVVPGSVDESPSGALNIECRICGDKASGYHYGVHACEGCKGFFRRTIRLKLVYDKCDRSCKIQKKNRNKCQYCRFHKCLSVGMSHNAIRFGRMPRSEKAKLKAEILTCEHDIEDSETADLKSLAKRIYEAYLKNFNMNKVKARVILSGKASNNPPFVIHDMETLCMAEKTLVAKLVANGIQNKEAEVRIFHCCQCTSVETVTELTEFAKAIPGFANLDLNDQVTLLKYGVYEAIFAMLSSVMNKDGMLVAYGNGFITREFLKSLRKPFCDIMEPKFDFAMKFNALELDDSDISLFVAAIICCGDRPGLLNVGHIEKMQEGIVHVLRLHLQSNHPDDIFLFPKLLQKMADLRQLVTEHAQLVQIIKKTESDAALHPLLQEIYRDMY
Conditions: cited from earlier work.

The test system of series [8] is PPARγ. Conditions: cited from earlier work.

Experimental for MCF-7 cells: FIG. 13. […] MCF-7 cells were treated with increasing concentrations of Troglitazone for 4 days and cell viability was assessed by the conversion of MTT to formazan as previously described. Data are the mean ±SEM from 2 studies done in triplicate.
A non-PPARγ expressing human breast cancer cell line, MCF-7 was tested.
Experimental for NWTb3 cells: FIG. 11. […] Cells were grown in 24 well-plates with high-glucose MEM 10% FCS. Cell viability was assessed by the conversion of MTT to formazan as previously described. Data are the mean ±SEM from 2 studies done in triplicate.

Take `Cc1c(C)c2c(c(C)c1O)CCC(C)(COc1ccc(CC3SC(=O)NC3=O)cc1)O2` (single isomer, unassigned; (+)) [Troglitazone, (+)-5[[4-[(3,4-dihydro-6-hydroxy-2,5,7,8-tetramethyl-2H-1-benzopyran-2-yl)methoxy]phenyl]methyl]-2,4thiazolidinedione]: the “concentrations causing a loss of cell viability” value with NWTb3 cells is at least 1.0 µg/mL; with HGL5 cells [1], at least 0.5 µg·mL. Also, the “mRNA concentrations of P450scc” value in the series with P450scc was “did not suppress mRNA concentrations of P450scc”. Further, the cell viability entry in the series with porcine granulosa cells [2] was “not a decrease in cell viability”; with MCF-7 cells, “decreased only with high concentrations”. Further, the “total protein concentrations versus control” value in the series with porcine granulosa cells [3] (Troglitazone treatment groups vs control) was “lower”. Besides, in the series with porcine granulosa cells [3] (Troglitazone-treated vs control cells), the “DNA content versus control” value is listed as “not a significant decrease in DNA content”. The “suppression of progesterone at single concentration” value in the series on porcine granulosa cells [4] (5 μg ml, 24 h (FIG. 7B)) is given as “suppression of progesterone in these cells occurred”. In addition, the “time at which progesterone production was suppressed” value in the series with porcine granulosa cells [4] (1 or 10 μg ml, up to 24 h (FIG. 2)) was at least 4 h. Also, the “effect of concentration on time of onset of suppression” value in the series on porcine granulosa cells [4] (1 vs 10 μg ml (FIG. 2)) is listed as “did not affect the time of onset of suppression”. Besides, the “potency at suppressing progesterone production relative to the other thiazolidinediones” value in the series with porcine granulosa cells [4] (24 h dose-response (FIG. 1)) is “more potent at suppressing progesterone production than 2 other drugs”. In the series with porcine granulosa cells [4] (co-treatment with 25-OH cholesterol 30 μg ml, Troglitazone 1 and 10 μg ml, 24 h (FIG. 4)), the “progesterone production in the presence of 25-OH cholesterol” value is recorded as “suppressed progesterone production”. Besides, in the series with porcine granulosa cells [4], the “suppression of progesterone production, dose-response” value (shortened to “suppression … dose-response”) was “suppressed progesterone production by porcine granulosa cells in a dose-dependent fashion”. The “women with ovulatory menses” value in [5] (25 women studied) was 2 of the 25. Besides, the insulin resistance result in series [5] is given as “reduced”. In the series on HGL5 cells [6] (30 μg ml), the “progesterone production at single concentration” value was “inhibited progesterone production”. Moreover, in the series with HGL5 cells [6] (HGL5, 48 h (FIG. 8)), the “biphasic response at lower concentrations” value is recorded as “lower concentrations actually increasing progesterone production”. The “concentrations at which progesterone production was suppressed” value with HGL5 cells [6] (HGL5, 48 h (FIG. 8)) is recorded as “greater than 10 μg”.

As for `CN(CCOc1ccc(CC2SC(=O)NC2=O)cc1)c1ccccn1` (centres unmarked) [BRL 49653, 5-[4-[2-(N-methyl-N-(2-pyridyl)amino]ethoxy]benzyl]thiazolidine-2,4-dione], the “binding to the PPRE in granulosa cell nuclear extracts” value in the series with PPARγ [7] was “increased binding to the PPRE”. Also, the “suppression … dose-response” value with porcine granulosa cells [4] is given as “suppressed progesterone production by porcine granulosa cells in a dose-dependent fashion”.

In the case of `CCCCC/C=C/C=C1/C(=O)C=C[C@@H]1C/C=C\CCCC(=O)O` [15d-PGJ2, 15-deoxy-delta^12, 14-prostaglandin J2], on PPARα, the PPARα activation entry is given as “activated PPARα only at high concentrations”. Further, the PPARγ-dependent adipogenesis result in the series with PPARγ [8] is reported as “activates PPARγ-dependent adipogenesis”.

As to `CCc1ccc(CCOc2ccc(CC3SC(=O)NC3=O)cc2)nc1` (centres unmarked) [pioglitazone, 5-[4-[2-(5-ethylpyridin-2-yl)ethoxyl]benzyl]thiazolidine-2,4-dione], the “suppression … dose-response” value in the series with porcine granulosa cells [4] is on record as “suppressed progesterone production by porcine granulosa cells in a dose-dependent fashion”.
